# Source: patent EP4417602A1, “SUBSTITUTED PYRAZOLE CARBOXAMIDES, SALTS THEREOF AND THEIR USE AS HERBICIDALLY ACTIVE SUBSTANCES” (Bayer AG, priority 2023, dated 2024)
# Key:
# LOLRI = assay: A. Herbicidal pre-emergence action on harmful plants (Tables A); type: in vivo, Lolium rigidum; conditions: visual grading after ca. 3 weeks vs untreated controls, 100% = plants have died off, 0% = as control plants
# Text: (§1) Seeds of mono- and dicotyledonous weed plants were sown in plastic pots (double sowings with one species of mono- and one species of dicotyledonous weed plants per pot), in sandy loam, and covered with soil. The compounds according to the invention, formulated in the form of wettable powders (WP) or as emulsifiable concentrates (EC), were applied to the surface of the covering soil as aqueous suspension or emulsion, with the addition of 0.5% of an additive, at an application rate of 6001 of water per hectare (converted). Following treatment, the pots were placed in a greenhouse and kept under optimum growth conditions for the test plants. The visual grading of the damage to the test plants was carried out after ca. 3 weeks in comparison to untreated controls (herbicidal effect in percent (%): 100% effect = plants have died off, 0% effect = as control plants). Tables A1 to A12, below, show the effects of selected compounds of the general formula (I) according to table 1 on various harmful plants and an application rate corresponding to 1280 g/ha or below obtained by the experimental procedure mentioned above. Table A1: pre-emergence activity at 1280g/ha against ABUTH in %
# POAAN [1] = assay: as above; type: in vivo, Poa annua
# Text: as §1
# ALOMY = assay: as above; type: in vivo, Alopecurus myosuroides
# Text: as §1
# SETVI = assay: as above; type: in vivo, Setaria viridis; conditions: visual grading after ca. 3 weeks vs untreated controls, 100% = plants have died off, 0% = as control plants
# Text: as §1
# ECHCG [2] = assay: as above; type: in vivo, Echinochloa crus-galli; conditions: visual grading after ca. 3 weeks vs untreated controls, 100% = plants have died off, 0% = as control plants
# Text: as §1
# VERPE = assay: B. Herbicidal post-emergence action on harmful plants (Tables B); type: in vivo, Veronica persica; conditions: application rate 1280 g/ha; Table B11a
# Experimental: (§2) Seeds of mono- and dicotyledonous weed plants were placed in plastic pots in sandy loam soil (doubly sown with in each case one species of mono- or dicotyledonous weed plants per pot), covered with soil and cultivated in a greenhouse under controlled growth conditions. 2 to 3 weeks after sowing, the test plants were treated at the one-leaf stage. The compounds of the invention, formulated in the form of wettable powders (WP) or as emulsion concentrates (EC), were applied onto the green parts of the plants as aqueous suspension or emulsion with addition of 0.5% additive at a water application rate of 600 liters per hectare (converted). After the test plants had been kept in the greenhouse under optimum growth conditions for about 3 weeks, the activity of the preparations was rated visually in comparison to untreated controls. For example, 100% activity = the plants have died, 0% activity = like control plants. Tables B1 to B12, below, show the effects of selected compounds of the general formula (I) according to table 1 on various harmful plants and an application rate corresponding to 1280 g/ha or below obtained by the experimental procedure mentioned above. Table B1a: post-emergence activity at 1280g/ha against ABUTH in %
# POAAN [3] = assay: as above; type: in vivo, Poa annua
# Experimental: as §2
# STEME = assay: A. Herbicidal pre-emergence action on harmful plants (Tables A); type: in vivo, Stellaria media; conditions: visual grading after ca. 3 weeks vs untreated controls, 100% = plants have died off, 0% = as control plants
# Text: as §1
# DIGSA = assay: as above; type: in vivo, Digitaria sanguinalis
# Text: as §1
# MATIN [4] = assay: as above; type: in vivo, Matricaria inodora; conditions: visual grading after ca. 3 weeks vs untreated controls, 100% = plants have died off, 0% = as control plants
# Text: as §1
# AMARE [5] = assay: B. Herbicidal post-emergence action on harmful plants (Tables B); type: in vivo, Amaranthus retroflexus; conditions: application rate 1280 g/ha; Table B8
# Experimental: as §2
# MATIN [6] = assay: as above; type: in vivo, Matricaria inodora; conditions: application rate 1280 g/ha; Table B4a
# Experimental: as §2
# AMARE [7] = assay: A. Herbicidal pre-emergence action on harmful plants (Tables A); type: in vivo, Amaranthus retroflexus; conditions: application rate 1280 g/ha; visual grading after ca. 3 weeks vs untreated controls; 100% = plants have died off, 0% = as control plants
# Text: as §1
# ECHCG [8] = assay: B. Herbicidal post-emergence action on harmful plants (Tables B); type: in vivo, Echinochloa crus-galli; conditions: application rate 1280 g/ha; Table B2a
# Experimental: as §2
# [9] = application rate 80 g/ha, Table A7c
# [10] = application rate 320 g/ha, Table A7b
# [11] = application rate 1280 g/ha, visual grading after ca. 3 weeks vs untreated controls, 100% = plants have died off, 0% = as control plants
# [12] = application rate 1280 g/ha, Table A9a
# [13] = application rate 320 g/ha, Table B7b
# [14] = application rate 1280 g/ha, Table B7a
# [15] = application rate 320 g/ha, Table A12b
# [16] = application rate 1280 g/ha, Table A12a
smiles,measurement,setting,value
COCc1nn(C)cc1C(=O)N1CCCC1Cc1ncccc1F (racemic) [Example I-015],pre-emergence activity against LOLRI,LOLRI; application rate 1280 g/ha,100%
same,pre-emergence activity against POAAN,POAAN [1]; [9],100%
same,pre-emergence activity against POAAN,POAAN [1]; [10],100%
same,pre-emergence activity against POAAN,POAAN [1]; [11],100%
same,pre-emergence activity against ALOMY,ALOMY; [12],90%
same,pre-emergence activity against SETVI,SETVI; application rate 1280 g/ha,90%
same,pre-emergence activity against ECHCG,ECHCG [2]; application rate 320 g/ha,90%
same,pre-emergence activity against ECHCG,ECHCG [2]; application rate 1280 g/ha,100%
same,post-emergence activity against VERPE,VERPE,90%
same,post-emergence activity against POAAN,POAAN [3]; [13],90%
same,post-emergence activity against POAAN,POAAN [3]; [14],90%
COCc1nn(C(=O)NC2CC2)cc1C(=O)N1CCCC1Cc1ccccc1F (racemic) [Example I-036],pre-emergence activity against LOLRI,LOLRI; application rate 320 g/ha,90%
same,pre-emergence activity against LOLRI,LOLRI; application rate 1280 g/ha,90%
same,pre-emergence activity against POAAN,POAAN [1]; [9],90%
same,pre-emergence activity against POAAN,POAAN [1]; [10],90%
same,pre-emergence activity against POAAN,POAAN [1]; [11],100%
same,pre-emergence activity against STEME,STEME; application rate 320 g/ha,90%
same,pre-emergence activity against STEME,STEME; application rate 1280 g/ha,90%
same,pre-emergence activity against ALOMY,ALOMY; [12],90%
same,pre-emergence activity against SETVI,SETVI; application rate 1280 g/ha,90%
same,pre-emergence activity against ECHCG,ECHCG [2]; application rate 320 g/ha,90%
same,pre-emergence activity against ECHCG,ECHCG [2]; application rate 1280 g/ha,100%
same,post-emergence activity against VERPE,VERPE,90%
same,pre-emergence activity against DIGSA,DIGSA; [15],90%
same,pre-emergence activity against DIGSA,DIGSA; [16],100%
same,pre-emergence activity against MATIN,MATIN [4]; application rate 1280 g/ha,90%
COCc1nn(CCC(OC)OC)cc1C(=O)N1CCCC1Cc1ccccc1F (racemic) [Example I-048],pre-emergence activity against LOLRI,LOLRI; application rate 1280 g/ha,90%
same,pre-emergence activity against POAAN,POAAN [1]; [10],90%
same,pre-emergence activity against POAAN,POAAN [1]; [11],100%
same,pre-emergence activity against ECHCG,ECHCG [2]; application rate 1280 g/ha,90%
same,pre-emergence activity against DIGSA,DIGSA; [16],90%
same,post-emergence activity against AMARE,AMARE [5],90%
COCc1nn(C)cc1C(=O)N1CCCC1Cc1c(F)cccc1F (racemic) [Example I-081],pre-emergence activity against LOLRI,LOLRI; application rate 80 g/ha,100%
same,pre-emergence activity against LOLRI,LOLRI; application rate 320 g/ha,100%
same,pre-emergence activity against LOLRI,LOLRI; application rate 1280 g/ha,100%
same,pre-emergence activity against POAAN,POAAN [1]; [9],100%
same,pre-emergence activity against POAAN,POAAN [1]; [10],100%
same,pre-emergence activity against POAAN,POAAN [1]; [11],100%
same,pre-emergence activity against STEME,STEME; application rate 1280 g/ha,90%
same,pre-emergence activity against ALOMY,"ALOMY; application rate 320 g/ha, Table A9b",90%
same,pre-emergence activity against ALOMY,ALOMY; [12],100%
same,pre-emergence activity against SETVI,SETVI; application rate 80 g/ha,90%
same,pre-emergence activity against SETVI,SETVI; application rate 320 g/ha,100%
same,pre-emergence activity against SETVI,SETVI; application rate 1280 g/ha,100%
same,pre-emergence activity against ECHCG,ECHCG [2]; application rate 80 g/ha,90%
same,pre-emergence activity against ECHCG,ECHCG [2]; application rate 320 g/ha,100%
same,pre-emergence activity against ECHCG,ECHCG [2]; application rate 1280 g/ha,100%
same,post-emergence activity against MATIN,MATIN [6],90%
same,pre-emergence activity against DIGSA,"DIGSA; application rate 80 g/ha, Table A12c",90%
same,pre-emergence activity against DIGSA,DIGSA; [15],100%
same,pre-emergence activity against DIGSA,DIGSA; [16],100%
same,pre-emergence activity against MATIN,MATIN [4]; application rate 320 g/ha,90%
same,pre-emergence activity against MATIN,MATIN [4]; application rate 1280 g/ha,90%
same,post-emergence activity against POAAN,"POAAN [3]; application rate 80 g/ha, Table B7c",90%
same,post-emergence activity against POAAN,POAAN [3]; [13],90%
same,post-emergence activity against POAAN,POAAN [3]; [14],100%
same,pre-emergence activity against AMARE,AMARE [7],90%
CCOCc1nn(C)cc1C(=O)N1CCC1Cc1ccccc1Cl (racemic) [Example I-106],pre-emergence activity against LOLRI,LOLRI; application rate 1280 g/ha,90%
same,pre-emergence activity against POAAN,POAAN [1]; [10],100%
same,pre-emergence activity against POAAN,POAAN [1]; [11],100%
same,pre-emergence activity against STEME,STEME; application rate 1280 g/ha,90%
same,pre-emergence activity against SETVI,SETVI; application rate 80 g/ha,90%
same,pre-emergence activity against SETVI,SETVI; application rate 320 g/ha,100%
same,pre-emergence activity against SETVI,SETVI; application rate 1280 g/ha,100%
same,pre-emergence activity against ECHCG,ECHCG [2]; application rate 80 g/ha,90%
same,pre-emergence activity against ECHCG,ECHCG [2]; application rate 320 g/ha,90%
same,pre-emergence activity against ECHCG,ECHCG [2]; application rate 1280 g/ha,100%
same,pre-emergence activity against DIGSA,DIGSA; [15],90%
same,pre-emergence activity against DIGSA,DIGSA; [16],100%
same,post-emergence activity against AMARE,AMARE [5],90%
CCOCc1nn(C)cc1C(=O)N1CCC1Cc1c(F)cccc1Cl (racemic) [Example I-110],pre-emergence activity against LOLRI,LOLRI; application rate 320 g/ha,90%
same,pre-emergence activity against LOLRI,LOLRI; application rate 1280 g/ha,100%
same,pre-emergence activity against POAAN,POAAN [1]; [10],90%
same,pre-emergence activity against POAAN,POAAN [1]; [11],100%
same,pre-emergence activity against STEME,STEME; application rate 1280 g/ha,90%
same,pre-emergence activity against SETVI,SETVI; application rate 1280 g/ha,100%
same,pre-emergence activity against ECHCG,ECHCG [2]; application rate 320 g/ha,90%
same,pre-emergence activity against ECHCG,ECHCG [2]; application rate 1280 g/ha,100%
same,pre-emergence activity against DIGSA,DIGSA; [15],90%
same,pre-emergence activity against DIGSA,DIGSA; [16],90%
same,post-emergence activity against AMARE,AMARE [5],100%
same,pre-emergence activity against MATIN,MATIN [4]; application rate 1280 g/ha,90%
COCc1nn(C)cc1C(=O)N1CCC1Cc1ccccc1Cl (racemic) [Example I-113],pre-emergence activity against POAAN,POAAN [1]; [10],100%
same,pre-emergence activity against POAAN,POAAN [1]; [11],100%
same,pre-emergence activity against ECHCG,ECHCG [2]; application rate 1280 g/ha,90%
same,post-emergence activity against AMARE,AMARE [5],90%
same,pre-emergence activity against MATIN,MATIN [4]; application rate 1280 g/ha,90%
COCc1c(C(=O)N2CCCC2Cc2ccc(Cl)cc2Cl)cnn1C (racemic) [Example I-166],pre-emergence activity against LOLRI,LOLRI; application rate 1280 g/ha,100%
same,pre-emergence activity against POAAN,POAAN [1]; [9],90%
same,pre-emergence activity against POAAN,POAAN [1]; [10],90%
same,pre-emergence activity against POAAN,POAAN [1]; [11],100%
same,pre-emergence activity against STEME,STEME; application rate 1280 g/ha,90%
same,pre-emergence activity against SETVI,SETVI; application rate 1280 g/ha,90%
same,pre-emergence activity against ECHCG,ECHCG [2]; application rate 1280 g/ha,90%
same,post-emergence activity against VERPE,VERPE,90%
same,post-emergence activity against MATIN,MATIN [6],90%
same,post-emergence activity against ECHCG,ECHCG [8],90%
same,post-emergence activity against POAAN,POAAN [3]; [14],90%
same,pre-emergence activity against AMARE,AMARE [7],90%
"C=CCOCc1c(C(=O)N2CCCC2Cc2ccccc2F)cnn1C (single isomer, unassigned) [Example I-144]",pre-emergence activity against POAAN,POAAN [1]; [9],100%
same,pre-emergence activity against POAAN,POAAN [1]; [10],100%
same,pre-emergence activity against POAAN,POAAN [1]; [11],100%
same,pre-emergence activity against STEME,STEME; application rate 1280 g/ha,90%
same,pre-emergence activity against SETVI,SETVI; application rate 1280 g/ha,90%
same,pre-emergence activity against ECHCG,ECHCG [2]; application rate 320 g/ha,90%
same,pre-emergence activity against ECHCG,ECHCG [2]; application rate 1280 g/ha,100%
same,pre-emergence activity against DIGSA,DIGSA; [16],90%
same,post-emergence activity against AMARE,AMARE [5],90%
